The source made the active and inactive calls. Rule as the data show it: actives have a measured EC50 and inactives only a lower limit.
Key:
[1] = tested on: Streptococcus sp. 'group A'; assay: growth inhibition of control SK(-) GAS strain, dose response, counter-screen for streptokinase expression inhibitor project, luminescence, kanamycin, BacTiterGlo, confirmation (AID 1900); type: functional, organism-based
Streptococcus = assay: Group A Streptococcus viability loss, dose response, counter-screen for streptokinase expression inhibitor project, luminescence, BacTiterGlo (AID 1915); type: functional, organism-based;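 also: potency for reduction of bacterial viability or growth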
[2] = inhibitors of intracellular T. cruzi replication, confirmation, NIH3T3 host cells, beta-gal luminescence (AID 2044); type: functional, cell-based;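 also: intracellular parasites grown in NIH/3T3 mouse fibroblasts as host cells; luminescent beta-galactosidase reporter signal from transgenic T. cruzi replicating inside host cells; inhibitors lower the luminescence signal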
[3] = cytotoxicity toward NIH3T3 fibroblasts, dose response, counter-screen, cell-based, ATP luminescence, mouse fibroblasts (AID 2010); type: functional;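 also: cells exposed to compound for about 90 hours before reading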
[4] = target: T1, Heat shock factor protein 1 (Mus musculus, UniProt P38532); assay: HSF1 potentiators in luciferase reporter cells, confirmation, cell-based, NIH3T3, luminescence, dose retest (AID 435004); type: functional;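 also: stress induced by proteasome inhibitor MG132 added 30 min after compound; luciferase reporter driven by HSF1 response element in NIH3T3 cells; actives raise luminescence as potentiators of the MG132 stress response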
T1 sequence (P38532 whole entry): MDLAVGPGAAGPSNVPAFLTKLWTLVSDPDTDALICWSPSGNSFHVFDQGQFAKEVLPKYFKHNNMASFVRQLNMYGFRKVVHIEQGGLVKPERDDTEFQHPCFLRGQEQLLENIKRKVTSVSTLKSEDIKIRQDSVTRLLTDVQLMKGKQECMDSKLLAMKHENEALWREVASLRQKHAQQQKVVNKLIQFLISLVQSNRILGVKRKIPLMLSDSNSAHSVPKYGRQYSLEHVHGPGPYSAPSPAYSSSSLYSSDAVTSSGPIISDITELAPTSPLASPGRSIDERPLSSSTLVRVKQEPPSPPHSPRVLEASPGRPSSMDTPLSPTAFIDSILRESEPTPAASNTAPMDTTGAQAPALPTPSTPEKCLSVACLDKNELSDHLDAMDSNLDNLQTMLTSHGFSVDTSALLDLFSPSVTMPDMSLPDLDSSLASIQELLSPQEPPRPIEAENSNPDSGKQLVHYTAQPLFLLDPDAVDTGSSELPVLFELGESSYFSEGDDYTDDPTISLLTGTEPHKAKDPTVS

Streptokinase A = target: T2, Streptokinase A (Streptococcus pyogenes serotype M1, UniProt P10520); assay: S. pyogenes streptokinase expression inhibitors, potency, dose response, plasminogen activation absorbance, OD405 (AID 1914); type: functional, Streptococcus pyogenes M1 GAS;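 also: secreted streptokinase activity via plasminogen activation per viability signal from cell pellet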
T2 sequence (P10520 whole entry): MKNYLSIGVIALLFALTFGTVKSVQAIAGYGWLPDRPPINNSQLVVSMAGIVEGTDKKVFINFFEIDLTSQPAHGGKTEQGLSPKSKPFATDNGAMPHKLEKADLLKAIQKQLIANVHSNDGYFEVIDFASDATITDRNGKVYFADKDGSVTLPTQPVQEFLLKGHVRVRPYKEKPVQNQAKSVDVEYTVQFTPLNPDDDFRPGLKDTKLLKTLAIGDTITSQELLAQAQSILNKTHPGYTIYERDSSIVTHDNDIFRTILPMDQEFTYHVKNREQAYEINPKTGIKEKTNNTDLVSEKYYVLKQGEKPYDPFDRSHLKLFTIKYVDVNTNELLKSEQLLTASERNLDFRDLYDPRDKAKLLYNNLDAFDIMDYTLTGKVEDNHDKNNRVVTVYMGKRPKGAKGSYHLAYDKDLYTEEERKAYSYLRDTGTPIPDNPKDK

[5] = target: T3, Corticotropin-releasing factor receptor 2/Corticotropin-releasing factor-binding protein (Homo sapiens, UniProt P24387+Q13324); assay: activators of CRF receptor 2 with binding protein – uHTS hits, confirmation (AID 602473); type: functional; conditions: read-out: EC50_Mean
T3 sequence (Q13324 whole entry): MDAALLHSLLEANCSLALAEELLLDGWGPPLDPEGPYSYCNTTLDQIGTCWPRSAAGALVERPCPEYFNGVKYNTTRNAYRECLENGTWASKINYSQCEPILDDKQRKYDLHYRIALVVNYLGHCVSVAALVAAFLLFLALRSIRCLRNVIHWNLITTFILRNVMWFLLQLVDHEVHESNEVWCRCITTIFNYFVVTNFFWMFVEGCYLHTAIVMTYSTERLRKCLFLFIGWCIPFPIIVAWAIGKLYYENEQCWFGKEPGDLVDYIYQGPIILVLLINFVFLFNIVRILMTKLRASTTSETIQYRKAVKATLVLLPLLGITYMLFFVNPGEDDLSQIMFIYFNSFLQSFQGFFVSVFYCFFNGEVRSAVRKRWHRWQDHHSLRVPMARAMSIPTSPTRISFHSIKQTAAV
T3 sequence (P24387 whole entry): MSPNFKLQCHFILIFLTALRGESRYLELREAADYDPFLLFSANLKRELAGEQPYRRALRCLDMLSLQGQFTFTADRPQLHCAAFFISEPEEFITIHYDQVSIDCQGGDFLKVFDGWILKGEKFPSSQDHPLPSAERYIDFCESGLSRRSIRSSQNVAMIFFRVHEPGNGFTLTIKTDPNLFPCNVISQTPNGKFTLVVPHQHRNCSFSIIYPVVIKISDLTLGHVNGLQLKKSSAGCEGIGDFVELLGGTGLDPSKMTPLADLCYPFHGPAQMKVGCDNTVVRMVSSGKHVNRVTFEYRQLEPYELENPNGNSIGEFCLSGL

| SMILES | EC50 [1] | EC50 (Streptococcus) | EC50 (Streptokinase A) | further results |
| --- | --- | --- | --- | --- |
| Cn1c(O)cc(=O)nc1SCC(=O)Nc1ccc(Cl)cc1 | 29.9 µM (active) | > 150 µM (not active) | – | – |
| COc1ccc(C(=O)NC(=S)N2CCCCC2c2cccnc2)cc1OC (stereo unspecified) | – | – | – | EC50 [2]: 1.32 µM (active); EC50 [3]: > 60 µM (not active); EC50 [4]: > 260 µM (inactive) |
| COc1ccc(C#Cc2ccc3c(=O)c4ccccc4n(C)c3c2)cc1 | 10.3 µM (active) | 102 µM (active) | 110 µM (active) | – |
| COc1ccc(-c2nc3scc(-c4ccccc4)n3n2)cc1 | – | – | – | EC50 [4]: > 260 µM (inactive) |
| Cc1ccc(NS(=O)(=O)c2ccc(C(=O)N3CC(C)OC(C)C3)cc2)cc1 (stereo unspecified) | – | – | – | EC50 [5]: 8.95 µM (active) |
| Cc1cnc(NC(=O)CSc2ncc(-c3ccccc3)n2Cc2ccco2)s1 | – | – | – | EC50 [5]: 5.51 µM (active) |
| Cc1cccc(CN2CCCC(C(=O)c3ccc4c5c(cccc35)CC4)C2)n1 (stereo unspecified) | 15 µM (active) | > 150 µM (not active) | > 150 µM (not active) | – |
| Cc1ccc(C(=N)NOC(=O)N2CCOCC2)cc1 | – | – | – | EC50 [2]: 1.95 µM (active); EC50 [3]: > 60 µM (not active) |
| Cc1ccc2ccc(C(Nc3cccc(C(F)(F)F)c3)c3cccnc3)c(O)c2n1 (stereo unspecified) | 2.12 µM (active) | 10.7 µM (active) | > 150 µM (not active) | – |
| Clc1ccc(C2=NCCN2)cc1 | – | – | – | EC50 [2]: 0.24 µM (active); EC50 [3]: > 60 µM (not active) |
| Cc1ccc(C(=O)NC(=S)N(C)C2CCCCC2)cc1Br | 2.54 µM (active) | 6.98 µM (active) | – | EC50 [2]: 2.07 µM (active); EC50 [3]: 8.13 µM (active) |
| COc1ccc(-c2c[n+](-c3ccccc3)c3n2CCS3)cc1 | – | – | – | EC50 [2]: 0.688 µM (active); EC50 [3]: > 60 µM (not active) |
| COc1cc(/C=C(/C#N)C(=O)c2c(C)[nH]c3ccccc23)ccc1OCC#N | – | – | – | EC50 [4]: > 260 µM (inactive) |
| Fc1ccc(-c2cc(C(F)(F)C(F)F)[nH]n2)cc1 | – | – | – | EC50 [5]: 6.17 µM (active) |
| Cc1nc2c(C(=O)NCc3ccc4c(c3)OCO4)cnn2c(C)c1Cc1ccc(F)cc1Cl | 9.62 µM (active) | > 150 µM (not active) | 42.9 µM (active) | – |
| CC12CC3(C)CC(C)(C1)CC(C(=O)NC1=NCCS1)(C2)C3 | 3.33 µM (active) | > 150 µM (not active) | > 150 µM (not active) | – |
| Cc1ccc2nc(NCCC(=O)O)nc(-c3ccccc3)c2c1 | – | – | – | EC50 [5]: 5.3 µM (active) |
| COc1cccc(C2CC(c3cccs3)=NN2C(=O)CSc2nc(O)c3cnn(-c4ccc(F)cc4)c3n2)c1OC (stereo unspecified) | 1.63 µM (active) | 11.6 µM (active) | – | – |
| CC(=O)Nc1ccc(NC(=O)CSc2nnc(NC(=O)c3ccc(Br)o3)s2)cc1 | 8.52 µM (active) | 44 µM (active) | > 150 µM (not active) | – |
| O=C(Nc1ccccc1C(=O)OCC(=O)c1c[nH]c2ccccc12)c1ccco1 | – | – | – | EC50 [4]: 55.3 µM (active) |
| Cc1cc(Cl)ccc1OCc1nc(-c2ccncc2)no1 | – | – | – | EC50 [2]: 2.43 µM (active); EC50 [3]: > 60 µM (inconclusive) |
| c1ccc2c(c1)nc(Nc1ccc(N3CCCCC3)cc1)c1nncn12 | 6.13 µM (active) | 91.3 µM (active) | > 150 µM (not active) | – |
| O=C(CSc1nnc(-c2cccs2)o1)N1CCCc2ccccc21 | – | – | – | EC50 [4]: > 260 µM (inactive) |
| O=C1NC(=O)N(Cc2ccccc2)C(=O)/C1=C/NNC(=O)c1ccccc1 | 9.3 µM (active) | 16.4 µM (active) | > 150 µM (not active) | – |

| SMILES | EC50 [1] | EC50 (Streptococcus) | EC50 (Streptokinase A) | further results |
| --- | --- | --- | --- | --- |
| CCN(CC(=O)NC(C)C)Cc1nc(O)c2c3c(sc2n1)CCC3 | – | – | – | EC50 [4]: > 260 µM (inactive) |
| CCOC(=O)CC(NC(=O)CCS(=O)(=O)c1ccc2c(c1)n(C)c(=O)c(=O)n2C)c1ccc(C)cc1 (stereo unspecified) | > 150 µM (not active) | > 150 µM (not active) | > 150 µM (not active) | – |
| COc1ccc(OC)c(N/C(C)=C/C(=O)c2ccccc2)c1 | – | – | – | EC50 [2]: 2.49 µM (active); EC50 [3]: > 60 µM (not active) |
| Cc1cccc(C)c1NC(=O)CN(C)CC(=O)Nc1sc2c(c1C(N)=O)CCC2 | > 150 µM (not active) | > 150 µM (not active) | > 150 µM (not active) | – |
| FC(F)(F)c1cccc(CNC2c3ccccc3-c3ccccc32)c1 | 22.8 µM (active) | > 150 µM (not active) | 19 µM (active) | – |
| O=C(CSc1nc[nH]n1)c1cccc([N+](=O)[O-])c1 | – | – | – | EC50 [4]: > 260 µM (inactive) |
| c1ccc(-c2nnc(-c3c[nH]c4ccccc34)nc2-c2ccccc2)cc1 | 14.7 µM (active) | 68.7 µM (active) | 20.1 µM (active) | – |
| CN(C)CCN(C(=O)c1ccc(S(=O)(=O)N(C)c2ccccc2)cc1)c1nc2cc3c(cc2s1)OCO3 | – | – | – | EC50 [2]: 0.145 µM (active); EC50 [3]: > 60 µM (not active) |
| OC1(C#Cc2c(-c3ccsc3)oc3ccc(N4CCOCC4)cc23)CCCCC1 | 6.92 µM (active) | 15.3 µM (active) | 54.6 µM (inconclusive) | – |
| NC(=O)CSC1=N/C(=C\c2ccco2)C(=O)N1c1ccc(OC(F)F)cc1 | – | – | – | EC50 [4]: 13.7 µM (active) |
| COc1ccc2[nH]c(CN3CCN(CCC(C)C)C(CCO)C3)c(C)c2c1 (stereo unspecified) | – | – | – | EC50 [2]: 0.648 µM (active); EC50 [3]: > 60 µM (not active) |
| Cc1cc(C)cc(C(=O)NC2C(=O)N3C(C(=O)O)=C(CSc4nnc(C)s4)CSC23)c1 (stereo unspecified) | 0.512 µM (active) | 1.62 µM (active) | > 150 µM (not active) | – |
| COCCn1c(-c2cc(OC)c(OC)c(OC)c2)nc2oc3cc(OC)ccc3c(=O)c2c1=O | > 150 µM (not active) | > 150 µM (not active) | > 150 µM (not active) | – |
| FC(F)(F)c1cccc(Cn2nnnc2-c2cc(Cl)cc(Cl)c2)c1 | – | – | – | EC50 [4]: > 260 µM (inactive) |
| COC(=O)c1c(C)oc2ccc(N(C(=O)Oc3ccccc3)S(=O)(=O)c3ccccc3)cc12 | – | – | – | EC50 [4]: > 260 µM (inactive) |
| C#CCN(N(C)c1ncc(C(F)(F)F)cc1Cl)S(=O)(=O)c1ccc2ccccc2c1 | – | – | – | EC50 [5]: > 53 µM (inactive) |
| CC(C)C(=O)N1CCC(n2nccc2NC(=O)CCOc2ccccc2)CC1 | – | – | – | EC50 [4]: > 260 µM (inactive) |
| CCOP(=O)(C(NC(=O)c1ccccc1Cl)=C(Cl)Cl)c1ccccc1 (stereo unspecified) | – | – | – | EC50 [4]: > 260 µM (inactive) |
| CCNC(=O)C(=O)NCc1ccncc1 | – | – | – | EC50 [4]: > 260 µM (inactive) |
| C/C(=N\NC(=S)Nc1ccc(C)cc1)c1cccc(N)c1 | – | – | – | EC50 [5]: > 53 µM (inactive) |
| CC(C)n1cc(/C=N/NC(=O)COc2cccc3cccnc23)c2ccccc21 | – | – | – | EC50 [4]: 75.1 µM (active) |
| Cc1cc(C)c(COc2ccc(/C=N/n3c(C)nnc3S)cc2)c(C)c1 | 4.01 µM (active) | 12.2 µM (active) | 12 µM (active) | – |
| CCOC(=O)c1csc(N/N=C2\CCCc3ccccc32)n1 | 9.3 µM (active) | 16 µM (active) | > 150 µM (not active) | – |
| Cc1ccc(S(=O)(=O)NC(C(=O)O)c2ccccc2)cc1 (stereo unspecified) | – | – | – | EC50 [5]: > 53 µM (inactive) |
